Measurements: ChEMBL document CHEMBL5046291, “Evodiamine-Inspired Topoisomerase-Histone Deacetylase Dual Inhibitors: Novel Orally Active Antitumor Agents for Leukemia Therapy” (J Med Chem, 2022)

Assays:
Type in all cases: functional, Homo sapiens
HEL [1] = test: Induction of apoptosis in HEL cells assessed as apoptotic cells at 0.5 uM incubated for 48 hrs by annexin V-FITC/PI staining based flow cytometry (reference value: 4.23%)
HEL [2] = test: Antitumor activity against HEL cells xenografted in BALB/C mouse assessed as T/C value at 10 mg/kg, po qd for 14 days consecutively by caliper method relative to control; conditions: time 14 day
HEL [3] = test: Induction of apoptosis in HEL cells assessed as apoptotic cells at 0.1 uM incubated for 48 hrs by annexin V-FITC/PI staining based flow cytometry (reference value: 3.95%)

Compound: O=C(CCCCCCC(=O)Nc1ccccc1)NO [VORINOSTAT]
- Activity (HEL [1]): 46.97%
- T/C (HEL [2]): 88.3%
- Activity (HEL [3]): 15.83%
